Reference: patent US4956381A, “Treating tissue calcium depletion or degenerative processes in bone or cartilage” (Sandoz Ltd., priority 1987, dated 1990)

Key:
IL-1β = assay: RIA-Kit IL-1 quantification in human monocyte cultures; format: cell-based
Description: (§1) Mononuclear cells are obtained from the blood of healthy volunteers via centrifugation and cultivated on tissue culture dishes with test compound at varying concentrations [Schnyder et al., J. Immunol., 138, 496-503 (1987)]. The non-adherent lymphocytes are removed after 4 hours by washing several times. Fresh medium, test compound and lipopolysaccharide (LPS) as stimulant are added and the monocytes incubated for further 19 hours. The pooled culture media are diluted 1:10 (v:v) with fresh medium and added to confluent rabbit chondrocytes. MP activity in the chondrocyte culture medium is assayed after a further 2 days. COMPOUNDS OF THE INVENTION, in particular compounds D2 and K1, are active in suppressing monokine release in the above test method at concentrations of the order of from about 30 to about 100 μM. Thus determined ED50 S for the compounds D2 and K1 each in substantially pure Z-isomeric form in a series of 3 or 7 separate experiments each with 3 parallel determinations are, for both compounds, of the order of 60 to 100 μM.
The procedures of example 1.1.b. above are repeated and IL-1 concentrations in recovered, undiluted culture medium determined employing a CISTRON IL-1 radioimmuno assay kit (the CISTRON kit is obtainable from Cistron, 10, Bloomfield Avenue, P.O. Box 2004, Pine Brook, NJ 07 058 USA. It is IL-1β specific and recognises both intra- and extra-cellular material).

recombinant human IL-1 = assay: Recombinant human IL-1 induced mouse thymocyte proliferation; format: cell-based; details: 75 ng/ml rh IL-1
Description: (§2) Lymphocyte proliferation is the standard test for monokine activity. It is highly sensitive, though relatively unspecific, with IL-2, phorbol myristate acetate, concanavalin A' g-type-prostaglandin and indomethacin-nall effecting disturbance. Human monocyte culture media are prepared as described under I.I.b. above, diluted 1:10, 1:20 and 1:40 (v:v), and added to […] (obtained from C3H/HeJ mice) Dulbecco's modified Eagle's medium, containing 20 mM hydroxyethyl-piperazin-ethane-sulfonic acid, 12 mM NaHCO3, 2 mM glutamine, 2% foetal bovine serum, 10 μM 2-mercaptoethanol, […] and antibiotics. The cells are incubated for 2 days in 96-well culture plates and the proliferation rate determined using a ^3 H-thymidine pulse (1 μC/well) during the final 6 hours. The incorporated radioactivity is collected on filter paper and counted. […] Thus determined ED50 s for the compounds D2 and K1 each in substantially pure Z-isomeric form in a series of 2 separate experiments each with 3 parallel determinations are of the order of 30 μM
(§3) In order to rule out an antagonistic effect or a direct influence of the COMPOUNDS OF THE INVENTION on the proliferation of mouse thymocytes which are used above in the LAF-test, the effect of the COMPOUNDS OF THE INVENTION on the incorporation of ^3 H-thymidine Is determined after thymocyte stimulation with recombinant human IL-1 or IL-2.

recombinant human IL-2 = assay: Recombinant human IL-2 induced mouse thymocyte proliferation; format: cell-based; details: 10 ng/ml rh IL-2
Description: as §2, §3

[1] = system: psoriatic arthritis or seronegative spondylarthrosis or osteoarthrosis; assay: Clinical trial IV: degenerative joint disease; format: in vivo, human; details: ca. 200 to 1200 mg p.o./day, 8 weeks
Description: COMPOUND OF THE INVENTION, e.g. compound D2 or K1 in substantially pure Z-isomeric form, is administered at dosages of from ca. 200 to 1200 mg/p.o./day, once or in divided dosages up to 4×daily for 8 weeks. The subjects are examined at a regular interval of 2 weeks for disease progression on parameters such as pain sensation at the joints, evaluation of the functional capacity according to Steinbrocker, hand grip strength or Richtie Index.

periodontal disease = assay: Clinical trial III: calcium resorption - periodontal disease; format: in vivo, human; details: ca. 400 to 1200 mg p.o./day or injection ca. 0.5 or 1.0 to 5.0 mg per gum pouch; after ca. 2 to 3 weeks
Description: COMPOUND OF THE INVENTION, e.g. compound D2 or K1 in substantially pure Z-isomeric form, is administered at dosages of from ca. 400 to 1200 mg/p.o./day administered once or in divided dosages up to 4x daily, or by injection into the gum at the site of disease at dosages of the order of about 0.5 or 1.0 to about 5.0 mg into each gum pouch. The subjects are examined at regular weekly or 2x weekly intervals for disease progression.

pulmonary fibrosis = assay: Pulmonary fibrosis (bleomycin induced); format: in vivo, New Zealand white rabbits; details: ca. 2.5 to 60 mg/kg/day p.o.; substantially pure Z-isomeric form; vs placebo
Description: Testing is carried out in accordance with the general methodology described by G. J. Laurent et al. in Eur. J. Clin. Invest. (1981) 11, 441-448. Pulmonary fibrosis is induced in groups of 4 New Zealand white rabbits (aged 127 days at commencement of the experiment), each weighing 2.0-2.5 kg, by intratracheal instillation of 10 mg/kg bleomycin. The lungs of test animals are examined 2, 4 and 8 weeks later.

beagle dogs = assay: Tolerability / pilot toxicology in beagle dogs; format: in vivo; details: 150 and 200 mg/kg p.o., gelatine capsules over 5 weeks, olive oil week 6 to 8; substantially pure Z-isomeric form
human monocytes = assay: LAF-test (thymocyte proliferation), monokine production by human monocytes; format: cell-based; details: Monocyte, substantially pure Z-isomeric form, 2 separate experiments, 3 parallel determinations, read-out: ED50 (inhibition of monokine production)
Description: as §1
Lymphocyte proliferation is the standard test for monokine activity. […] The cells are incubated for 2 days in 96-well culture plates and the proliferation rate determined using a ^3 H-thymidine pulse (1 μC/well) during the final 6 hours. The incorporated radioactivity is collected on filter paper and counted. […]

IL-1 = IL-1 induced secretion of metalloproteinase (MP) in chondrocytes; format: cell-based; details: 2 days incubation
Description: Furthermore the influence on IL-1 induced secretion of MP is determined using chondrocytes as a target system for IL-1. IL-1 (Genzyme Corporation,USA) is added with or without a COMPOUND OF THE INVENTION or Dexamethasone (control) to chondrocytes and the activity or metalloproteinase is determined in the supernatant media of 2 days incubation period.

[2] = CISTRON IL-1 radioimmuno assay, human monocytes
[3] = 3H-thymidine incorporation, mouse thymocytes

IC50 (IL-1β; Homo sapiens, Monocyte, 19 h, substantially pure Z-isomeric form, 2-8 experiments, 3 parallel determinations, read-out: ED50 for extra-cellular IL-1 level suppression): ~25 µM
Structure (SMILES): COC1=Cc2ccccc2/C(=C/C(=O)O)c2cc(Cl)sc21 [Compound K1, [2-Chloro-10-methoxy-4H-benzo[4,5]cyclohepta[1,2-b]thiophen-4-ylidene]-acetic acid]
extra-cellular IL-1 level (IL-1β; [2]): extra-cellular content is reduced significantly
intracellular IL-1 level (IL-1β; [2]): remain substantially unaffected
concentration dependency of influence on rh IL-1 induced proliferation (recombinant human IL-1): no concentration dependency is detectable
influence on recombinant human IL-1 induced proliferation (recombinant human IL-1; [3]): no significant influence
concentration dependency of influence on rh IL-2 induced proliferation (recombinant human IL-2): no concentration dependency is detectable
influence on recombinant human IL-2 induced proliferation (recombinant human IL-2; [3]): no significant influence
condition (degenerative joint disease) [1]: improvement in condition after the 8 week treatment period
condition (periodontal disease) (periodontal disease): marked improvement in condition after ca. 2 to 3 weeks continuous therapy
pulmonary fibrosis (pulmonary fibrosis): substantial reduction of pulmonary fibrosis
pathological effects (beagle dogs): no pathological effects are observed
IC50 (human monocytes): ~30 µM
influence on IL-1 induced secretion of MP (IL-1): do not influence the IL-1 induced secretion of MP
